Key:
Assay in all cases: relative viability (nuclei count vs DMSO), 5 days (fraction); higher = more cells survive
[1] = compound: Cc1ccc2nc(NCCN)c3ncc(C)n3c2c1 + Nc1ncn([C@H]2C[C@H](O)[C@@H](CO)O2)c(=O)n1 [Decitabine] (partner 2 µM)
Outline: (§1)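 Relative viability was taken as the ratio of nuclei in treated wells to nuclei in vehicle wells. Lung cancer cell lines in 1536-well plates received compounds by pin tool one day after seeding, either one drug alone or a fixed anchor-drug dose plus five library-drug doses (not always all listed) in √10 steps. Nuclei were counted on 4× images after 5 days of treatment, and values are medians of duplicate plates.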

[2] = compound: Cc1ccc2nc(NCCN)c3ncc(C)n3c2c1 + N=C(N)NC(=N)NCCc1ccccc1 [Phenformin] (partner 250 µM)
Outline: as §1

Salubrinal + Navitoclax = compound: O=C(/C=C/c1ccccc1)NC(NC(=S)Nc1cccc2cccnc12)C(Cl)(Cl)Cl [Salubrinal] + CC1(C)CCC(c2ccc(Cl)cc2)=C(CN2CCN(c3ccc(C(=O)NS(=O)(=O)c4ccc(N[C@H](CCN5CCOCC5)CSc5ccccc5)c(S(=O)(=O)C(F)(F)F)c4)cc3)CC2)C1 [Navitoclax] (partner 0.5 µM)
Outline: as §1

[3] = compound: Cc1ccc2nc(NCCN)c3ncc(C)n3c2c1 + CC(=O)Nc1cccc(-n2c(=O)n(C3CC3)c(=O)c3c(Nc4ccc(I)cc4F)n(C)c(=O)c(C)c32)c1 [Trametinib] (partner 0.02 µM)
Outline: as §1

For ABC-1, the relative viability ([1]; first compound 0.04 µM) was 1.14, the relative viability ([1]; first compound 0.1265 µM) was 1.32 and the relative viability ([1]; first compound 0.4 µM) was 1.12. The relative viability ([1]; first compound 1.265 µM) was 0.87, the relative viability ([1]; first compound 4 µM) was 1.3 and the relative viability ([2]; first compound 0.04 µM) was 0.236. The relative viability ([2]; first compound 0.1265 µM) was 0.27, the relative viability ([2]; first compound 0.4 µM) was 0.297 and the relative viability ([2]; first compound 1.265 µM) was 0.248. For the same cell line, the relative viability ([2]; first compound 4 µM) was 0.226.
Cell Line NCI-H1299 has a relative viability (Salubrinal + Navitoclax; first compound 0.08 µM) of 1.06, a relative viability (Salubrinal + Navitoclax; first compound 0.253 µM) of 1.07 and a relative viability (Salubrinal + Navitoclax; first compound 0.8 µM) of 1.07. For the same cell line, the relative viability (Salubrinal + Navitoclax; first compound 2.53 µM) was 0.986 and the relative viability (Salubrinal + Navitoclax; first compound 8 µM) was 1.11.
EBC-1 showed a relative viability (Salubrinal + Navitoclax; first compound 0.08 µM) of 0.349, a relative viability (Salubrinal + Navitoclax; first compound 0.253 µM) of 0.332 and a relative viability (Salubrinal + Navitoclax; first compound 0.8 µM) of 0.435. It also gave a relative viability (Salubrinal + Navitoclax; first compound 2.53 µM) of 0.399 and a relative viability (Salubrinal + Navitoclax; first compound 8 µM) of 0.287.
Work on NCI-H358 yielded a relative viability ([1]; first compound 0.04 µM) of 0.225, a relative viability ([1]; first compound 0.1265 µM) of 0.216 and a relative viability ([1]; first compound 0.4 µM) of 0.239. The relative viability ([1]; first compound 1.265 µM) was 0.257, the relative viability ([1]; first compound 4 µM) was 0.206 and the relative viability ([2]; first compound 0.04 µM) was 0.391. The relative viability ([2]; first compound 0.1265 µM) was 0.313, the relative viability ([2]; first compound 0.4 µM) was 0.323 and the relative viability ([2]; first compound 1.265 µM) was 0.359. For the same cell line, the relative viability ([2]; first compound 4 µM) was 0.402, the relative viability ([3]; first compound 0.04 µM) was 0.133 and the relative viability ([3]; first compound 0.1265 µM) was 0.153. For the same cell line, the relative viability ([3]; first compound 0.4 µM) was 0.13, the relative viability ([3]; first compound 1.265 µM) was 0.137 and the relative viability ([3]; first compound 4 µM) was 0.129.
NCI-H650 was tested, and the relative viability ([1]; first compound 0.04 µM) was 0.332, the relative viability ([1]; first compound 0.1265 µM) was 0.326 and the relative viability ([1]; first compound 0.4 µM) was 0.31. For the same cell line, the relative viability ([1]; first compound 1.265 µM) was 0.269, the relative viability ([1]; first compound 4 µM) was 0.331 and the relative viability ([2]; first compound 0.04 µM) was 0.462. The relative viability ([2]; first compound 0.1265 µM) was 0.476, the relative viability ([2]; first compound 0.4 µM) was 0.437 and the relative viability ([2]; first compound 1.265 µM) was 0.441. The relative viability ([2]; first compound 4 µM) was 0.425, the relative viability ([3]; first compound 0.04 µM) was 1.03 and the relative viability ([3]; first compound 0.1265 µM) was 0.911. For the same cell line, the relative viability ([3]; first compound 0.4 µM) was 1.07, the relative viability ([3]; first compound 1.265 µM) was 0.955 and the relative viability ([3]; first compound 4 µM) was 0.864.
NCI-H1648 was tested, and the relative viability ([1]; first compound 0.04 µM) was 0.521, the relative viability ([1]; first compound 0.1265 µM) was 0.5 and the relative viability ([1]; first compound 0.4 µM) was 0.568. For the same cell line, the relative viability ([1]; first compound 1.265 µM) was 0.528, the relative viability ([1]; first compound 4 µM) was 0.431 and the relative viability ([3]; first compound 0.04 µM) was 0.434. For the same cell line, the relative viability ([3]; first compound 0.1265 µM) was 0.433, the relative viability ([3]; first compound 0.4 µM) was 0.434 and the relative viability ([3]; first compound 1.265 µM) was 0.419. For the same cell line, the relative viability ([3]; first compound 4 µM) was 0.358.
For NCI-H1623, the relative viability ([2]; first compound 0.04 µM) was 0.586, the relative viability ([2]; first compound 0.1265 µM) was 0.618 and the relative viability ([2]; first compound 0.4 µM) was 0.657. The relative viability ([2]; first compound 1.265 µM) was 0.684 and the relative viability ([2]; first compound 4 µM) was 0.567.
For A549, the relative viability ([1]; first compound 0.04 µM) was 0.281, the relative viability ([1]; first compound 0.1265 µM) was 0.238 and the relative viability ([1]; first compound 0.4 µM) was 0.207. It also gave a relative viability ([1]; first compound 1.265 µM) of 0.299, a relative viability ([1]; first compound 4 µM) of 0.219 and a relative viability ([2]; first compound 0.04 µM) of 0.209. The relative viability ([2]; first compound 0.1265 µM) was 0.199, the relative viability ([2]; first compound 0.4 µM) was 0.166 and the relative viability ([2]; first compound 1.265 µM) was 0.111. It also gave a relative viability ([2]; first compound 4 µM) of 0.118, a relative viability (Salubrinal + Navitoclax; first compound 0.08 µM) of 1.4 and a relative viability (Salubrinal + Navitoclax; first compound 0.253 µM) of 1.11. The relative viability (Salubrinal + Navitoclax; first compound 0.8 µM) was 1.22, the relative viability (Salubrinal + Navitoclax; first compound 2.53 µM) was 1.21 and the relative viability (Salubrinal + Navitoclax; first compound 8 µM) was 1.21.
In the case of NCI-H1563, the relative viability ([2]; first compound 0.04 µM) is reported as 0.652, the relative viability ([2]; first compound 0.1265 µM) is reported as 0.684 and the relative viability ([2]; first compound 0.4 µM) is reported as 0.662. It also gave a relative viability ([2]; first compound 1.265 µM) of 0.65 and a relative viability ([2]; first compound 4 µM) of 0.654.
In the case of IA-LM, the relative viability (Salubrinal + Navitoclax; first compound 0.08 µM) is reported as 0.847, the relative viability (Salubrinal + Navitoclax; first compound 0.253 µM) is reported as 0.79 and the relative viability (Salubrinal + Navitoclax; first compound 0.8 µM) is reported as 0.782. The relative viability (Salubrinal + Navitoclax; first compound 2.53 µM) was 0.595 and the relative viability (Salubrinal + Navitoclax; first compound 8 µM) was 0.533.
In the case of NCI-H1703, the relative viability (Salubrinal + Navitoclax; first compound 0.08 µM) is reported as 1.39, the relative viability (Salubrinal + Navitoclax; first compound 0.253 µM) is reported as 1.12 and the relative viability (Salubrinal + Navitoclax; first compound 0.8 µM) is reported as 0.971. For the same cell line, the relative viability (Salubrinal + Navitoclax; first compound 2.53 µM) was 0.901 and the relative viability (Salubrinal + Navitoclax; first compound 8 µM) was 0.964.
In the case of LCLC-103H, the relative viability ([1]; first compound 0.04 µM) is reported as 0.71, the relative viability ([1]; first compound 0.1265 µM) is reported as 0.81 and the relative viability ([1]; first compound 0.4 µM) is reported as 0.731. The relative viability ([1]; first compound 1.265 µM) was 0.717, the relative viability ([1]; first compound 4 µM) was 0.735 and the relative viability ([2]; first compound 0.04 µM) was 0.342. It also gave a relative viability ([2]; first compound 0.1265 µM) of 0.349, a relative viability ([2]; first compound 0.4 µM) of 0.332 and a relative viability ([2]; first compound 1.265 µM) of 0.365. It also gave a relative viability ([2]; first compound 4 µM) of 0.348, a relative viability ([3]; first compound 0.04 µM) of 0.727 and a relative viability ([3]; first compound 0.1265 µM) of 0.677. The relative viability ([3]; first compound 0.4 µM) was 0.65, the relative viability ([3]; first compound 1.265 µM) was 0.66 and the relative viability ([3]; first compound 4 µM) was 0.67.
In the case of SW 900, the relative viability ([1]; first compound 0.1265 µM) is reported as 0.43, the relative viability ([1]; first compound 0.4 µM) is reported as 0.448 and the relative viability ([1]; first compound 1.265 µM) is reported as 0.354. The relative viability ([1]; first compound 4 µM) was 0.458, the relative viability ([2]; first compound 0.04 µM) was 0.594 and the relative viability ([2]; first compound 0.1265 µM) was 0.6. For the same cell line, the relative viability ([2]; first compound 1.265 µM) was 0.674, the relative viability ([2]; first compound 4 µM) was 0.849 and the relative viability ([3]; first compound 0.1265 µM) was 0.901. The relative viability ([3]; first compound 0.4 µM) was 0.827, the relative viability ([3]; first compound 1.265 µM) was 0.749 and the relative viability ([3]; first compound 4 µM) was 0.621.
